Data as given in US20250242340A1, “SABRE CATALYSTS CONTAINING FLUORINATED CARBON CHAINS FOR DELIVERY OF METAL-FREE MRI CONTRAST AGENTS” (The United States of America, as represented by the …, priority 2022, published 2025).
Read-outs that look alike come from different tables or passages of the source.

How the values were obtained:
[1] = type: physicochemical; conditions: 20 mM sodium [1-13C]pyruvate, 7.6 mM catalyst shown in Scheme 4, 50 mM DMSO, CD3OD, 0.4 μT, 5 °C, 110 psi, 90 scc/m, 1.8 T
Method: (§1) The SABRE samples were prepared in CD3OD, using 20 mM sodium [1-^13C]pyruvate, 7.6 mM perfluorinated SABRE catalyst shown in Scheme 4, and 50 mM dimethyl sulfoxide (DMSO), as described in Examples 6 and 7. The SABRE samples were exposed to the SABRE-SHEATH hyperpolarization conditions with the same set-up and optimum conditions described in Examples 6 and 7. The NMR tubes were pressurized (110 psi, i.e., approximately 8 bar total pressure) with p-H2 bubbling through the solution at a flow of 90 scc/m to activate the catalyst and to ^13C-hyperpolarize the sodium [1-^13C]pyruvate solution. Activation of the catalyst took place for about 15 minutes at ambient temperature and magnetic field. For polarization build-up, the sample was placed in the magnetic field (typically about 0.4 μT) and a water bath at 5° C. to regulate the reaction temperature. The spectrum was acquired immediately following manual sample transfer to a 1.8 T benchtop NMR after 5 seconds, and the results are set forth in the top spectrum of FIG. 17.

[2] = Isolation of hyperpolarized pyruvate by D2O precipitation of the catalyst and filtration (Example 8); type: physicochemical; conditions: 20% v/v D2O added, Oasis Prime HLB filter, 1.8 T NMR, procedure about 1.15 to 1.30 minutes
Method: The parahydrogen flow rate was established at 90 scc/m and pressurized to 8 bars, the mixing field was 0.4 μT, and the temperature was 0° C.
After the hyperpolarization procedure was completed, the sample was rapidly removed from the 0.40 μT field, depressurized, and 20% in volume (125 μL) of D2O was added to the solution to precipitate the perfluorinated SABRE catalyst.

[3] = Relaxation dynamics of hyperpolarized [1-13C]pyruvate in fluorous mixture (Example 25); type: physicochemical; conditions: fluorous mixture NFBME/MeOD
Source text: (§2) In addition, the relaxation dynamics of the [1-^13C]pyruvate were also studied.
In addition, relaxation dynamics at earth field and 1.8 T are about the same as a non-fluorinated SABRE catalyst T1=9.0±1.9 s and 16.0±1.4 s, respectively.

[4] = Biphasic extraction of hyperpolarized pyruvate into D2O from NFBME/MeOD (Example 26); type: physicochemical; conditions: after addition of 400 μL D2O to NFBME/MeOD sample (emulsion, bound and free pyruvate), catalyst of Example 4, 1.8 T, room temperature
Method: The hyperpolarization procedure of Example 6 was repeated using a mixture of nonafluorobutyl methyl ether (NFBME) and deuterated methanol instead of only deuterated methanol.
After the hyperpolarization procedure was completed, the sample was rapidly removed from the 0.40 μT field and transferred inside the NMR spectrometer at 1.8 T at room temperature. The NMR sample was depressurized and 400 μL of D2O was added to the solution in order to drive the hyperpolarized sodium [1-^13C]pyruvate into the aqueous phase.

[5] = type: physicochemical; conditions: 40 mM sodium [1-13C]pyruvate, 6.6 mM catalyst of Example 16, 50 mM DMSO, CD3OD, 0.4 μT, 5 °C, 110 psi, 90 scc/m, 1.8 T
Method: as §1, with “40” for “20”, “6.6” for “7.6”, “of Example 16,” for “shown in Scheme 4,”, “16.” for “17.”

[6] = type: physicochemical
Source text: Parahydrogen was generated using a Gas-Delivery Manifold. Ultra-high-purity hydrogen gas (Airgas) was fed into a ParaHydrogen flow cryostat (Xeus technology LTD) and enriched to about 50% parahydrogen in the presence of a spin-exchange catalyst (Fe2O3) at liquid nitrogen temperature (77K). […] The entire pH2 line was pressurized to 100 psi.
The magnetic shield condition was as follows. […] The shield was degaussed using internal homebuilt coils driven by a Variac when necessary.
MR experiments were performed using a 1 T Magritek Spinsolve benchtop NMR spectrometer.
FIG. 6 depicts, in the top curve, a single-scan HP ^13C spectrum obtained for the hyperpolarized probe. […] Enhancement is ε˜9000 and polarization is about P(^13C)˜1%.
All experiments were performed with the solution containing fluorinated catalyst, co-ligand (phenyl trifluoromethyl sulfoxide) and [1-^13C]Pyruvate in 0.6 mL CD3OD. The ratio and concentration can be further adjusted to attain better enhancement and polarization. […] The experiments were performed at room temperature, ˜100 scc/m p-H2 flow rate and 96 PSI p-H2 overpressure. The parahydrogen used in this example came from a low-cost 50% p-H2 generator. Each experiment, the p-H2 bubbling was applied for ˜1 min, the sample was quickly transferred to the 1 T NMR spectrometer for detection and the sample was then returned to the mu-metal shield to continue p-H2 bubbling for the next experiment.

[7] = Re-use of the fluorous catalyst mixture for pyruvate hyperpolarization (Example 26); type: physicochemical; conditions: re-used catalyst mixture from 4 days earlier, fresh 23 mM pyruvate and 47 mM DMSO in 0.2 mL CD3OD
[8] = Precipitation of HP pyruvate with ethyl acetate and reconstitution in D2O (Example 9); type: physicochemical; conditions: after EtOAc precipitation and reconstitution in water (D2O); 7.5 mM fluorinated catalyst, 50 mM DMSO, 20-30 mM pyruvate, 1.8 T
Method: Precipitation and redissolution of HP [1-^13C]pyruvate, which takes place in the same NMR tube where hyperpolarization, was performed (Schmidt et al., ACS Sensors, 7(11), 3430-3439 (2022)). The SABRE samples were prepared in CD3OD, using between 20 and 30 mM sodium [1-^13C]pyruvate, 7.5 mM fluorinated SABRE catalyst, and 50 mM dimethyl sulfoxide (DMSO), as described in Examples 6 and 7. 100 μL of this solution was transferred into 5 mm NMR tube and exposed to the SABRE-SHEATH hyperpolarization conditions with the same set-up and optimum conditions described in Examples 6 and 7. The solution was located inside a 3-layer mu-metal of 3″ I.D. and 9″ depth to shield external magnetic fields, combined with a custom-made solenoid to generate a static magnetic field B0 of 0.4 μT. The NMR tubes were pressurized (110 psi, i.e., approximately 8 bar total pressure) with p-H2 bubbling through the solution at a flow of 90 scc/m to activate the catalyst and to ^13C-hyperpolarize the sodium [1-^13C]pyruvate solution. Activation of the catalyst took place for 15 min at ambient temperature and magnetic field. For polarization build-up, the sample was placed in the static magnetic field (typically about 0.4 μT) and a water bath to regulate the reaction temperature at 0° C. After polarization, the NMR tube was rapidly transferred inside the NMR spectrometer at 1.8 T and kept at room temperature. […]

[9] = Relaxation dynamics of hyperpolarized [1-13C]pyruvate in methanol (Example 7); type: physicochemical
Source text: as §2
In addition, relaxation dynamics at earth field and 1.8 T are about the same as a non-fluorinated SABRE catalyst T1=28.9±1.6 s and 66.5±7 s, respectively.

[10] = type: physicochemical; conditions: 23 mM sodium [1-13C]pyruvate, 7.4 mM catalyst of Example 4, 46 mM DMSO, 0.2 mL NFBME + 0.2 mL MeOD, 90 scc/m, 110 PSI, 0.4 μT, 0 °C
[11] = Example 5 text: 8 mM fluorinated catalyst (Example 4), 16 mM PTFSO, 30 mM [1-13C]pyruvate, 0.6 mL CD3OD, room temperature, ~100 scc/m, 96 PSI, 50% p-H2, 1 T NMR
[12] = FIG. 6 legend: 30 mM sodium [1-13C]pyruvate, 42 mM PTFSO, 7.8 mM Ir-F-IMes, deuterated methanol, 55 s 50% p-H2 bubbling, BT=−0.7 μT, 1 T NMR

13C signal enhancement ε [1]: ~19000 fold
P13C [1]: ~4.91%
T1 ([3]; 1.8 T): 16.0 ± 1.4 s
T1 ([3]; relaxation at 0.4 μT): 11.3 ± 1.3 s
13C signal enhancement ε [4]: ~10800 fold
P13C [4]: ~1.68%
13C signal enhancement ε [5]: ~16900 fold
P13C [5]: ~2.17%
13C signal enhancement ε [6, 11]: ~9000
polarization P(13C) [6, 11]: ~1%
13C signal enhancement ε [6, 12]: ~1250
polarization P(13C) [6, 12]: ~0.1%
13C signal enhancement ε [7]: ~3090 fold
P13C [7]: ~0.48%
13C signal enhancement ε [8]: ~9000 fold
P13C [8]: ~2.17%
T1 ([9]; catalyst of Example 4, 1.8 T): 66.5 ± 7 s
T1 ([9]; catalyst of Example 4, Earth's field): 28.9 ± 1.6 s
T1 ([9]; catalyst of Example 4, relaxation at 0.4 μT): 16.1 ± 0.9 s
13C signal enhancement ε [10]: ~38600 fold
P13C [10]: ~6.02%
Structure (SMILES): CC(=O)C(=O)O [[1-^13C]pyruvate, Sodium [1-^13C]-pyruvate]
HP 13C signal after catalyst precipitation and filtration [2]: no HP ^13C signal was observed in any sample
